# Reference: patent US20260109712A1, “RIFAMYCINS FOR NONTUBERCULOUS MYCOBACTERIA” (priority 2022, published 2026)
# Where two headings read alike, the source gives them in different places.
# Columns and labels:
# [1] = Mouse pharmacokinetics studies; assay type: in vivo, CD-1 mice
# Procedure, shortened: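 Plasma from K2EDTA-collected blood analysed by LC-MS/MS with multiple-reaction monitoring in electrospray positive mode. Parameters derived by non-compartmental analysis.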
# [2] = Plasma protein binding assay (rapid equilibrium dialysis); assay type: in vitro ADME
# Procedure, shortened: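 Plasma was spiked to 10,000 ng/mL compound and dialysed against PBS by rapid equilibrium dialysis for 4 h at 37° C with shaking at 300 RPM. Plasma and buffer aliquots were matrix-matched 1:1 […] and quantified by LC-MS/MS.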
# M. simiae = test: MIC, Table 9; assay type: cell-based, Mycobacterium simiae
# M. chelonae = test: MIC, Table 9; assay type: cell-based, Mycobacterium chelonae
# M. fortuitum = test: MIC, Table 9; assay type: cell-based, Mycobacterium fortuitum
# [3] = test system: M. abscessus subspecies abscessus; test: MIC, Table 9; assay type: cell-based, Mycobacterium abscessus; details: for MIC: M. abscessus subspecies abscessus
# [4] = test system: M. abscessus subspecies massilense; test: MIC, Table 9; assay type: cell-based, Mycobacterium abscessus; details: for MIC: M. abscessus subspecies massilense
# [5] = test system: M. abscessus subspecies bolletii; test: MIC, Table 9; assay type: cell-based, Mycobacterium abscessus; details: for MIC: M. abscessus subspecies bolletii
# M. abscessus Bamboo = test: Caseum surrogate MBC90 (cMBC90) kill assay; assay type: cell-based, Mycobacterium abscessus; details: for cMBC90/bMBC90: 5-day assays; for MBC: read-out: cMBC90
# Description: (§1) The surrogate matrix was generated as described previously from cultured THP-1 cells (ATCC TIB-202) (mBio, 2023, 14, e0059823). M. abscessus exponential cultures grown in Middlebrook 7H9 broth (Sigma Aldrich) (OD600 0.6-0.9) were spun down and resuspended in water to an OD600 of 7, 0.7, and 0.07. As described for the M. tuberculosis caseum surrogate assay (mnBio, 2023, 14, e0059823), the bacterial suspensions (at three different dilutions resulting in ˜10^9, 10^8, and 10^7 starting CFU/mL, represented by circle, square, and triangle indicators respectively) were added to the caseum surrogate in the ratio 2:1 (vol/wt), briefly homogenized with 1.4-mm zirconia beads, divided evenly into nine 1.5-mL microcentrifuge tubes, and incubated as standing cultures at 37° C. At the indicated time points, tubes were removed and used for CFU enumeration by plating on Middlebrook 7H11 agar (Sigma Aldrich). Separate tubes were used at each time point. To determine the kill curves, cultures with a starting CFU/mL of 10^8 were used (resulting in the middle curve with square indicators). Arrows indicate the time points when drugs were added and the end of the treatment. The experiment was repeated three times independently, yielding similar results. A representative example is shown. Dots and error bars represent means and standard deviations of three technical replicates, respectively.
# FIGS. 29A-29M show the Dose-response kill curves against M. abscessus Bamboo in caseum surrogate. M. abscessus cultures were set up as described in the legend of FIG. 28. Bacterial cell suspensions were added to yield a starting CFU of 10^8/mL (FIG. 28, middle growth curve with square indicators). […] The shaded areas indicate drug concentration windows achieved in caseum in vivo. (Antimicrob. Agents Chemother., 2021, 65, e0050621; Antimicrob. Agents Chemother., 2022, 66, e0221221; PLoS Med., 2019, 16, e1002773; ACS Infect. Dis., 2016, 2, 251-267). The experiment was repeated twice independently, yielding similar results. A representative example is shown. Dots and error bars represent means and standard deviations of three technical replicates, respectively. Horizontal dotted lines indicate the cutoff for 1 log reduction in CFU compared to 10-day drug-free control culture. The cMBC90 values shown in Table 16 are the drug concentrations that reduce CFU by 90% relative to the CFU of drug-free controls at day 10. Since the cultures were in the stationary phase on day 5 when drug treatment started, the CFUs of the drug-free cultures at day 10 were similar to the CFUs of the drug-free cultures at day 5 (FIG. 28).
# as §1, with “(doi: 10.1128/mbio.00598-23).” for “(mBio, 2023, 14, e0059823).”, “(doi: 10.1128/mbio.00598-23),” for “(mnBio, 2023, 14, e0059823),”, “CFU/mL)” for “CFU/mL, represented by circle, square, and triangle indicators respectively)”, “curves for the drugs,” for “curves,”, “used.” for “used (resulting in the middle curve with square indicators). Arrows indicate the time points when drugs were added and the end of the treatment.”, “results.” for “results. A representative example is shown. Dots and error bars represent means and standard deviations of three technical replicates, respectively.”
# The experiment was repeated twice independently, yielding similar results. A representative example is shown. The cMBC90 values shown in Table 16 are the drug concentrations that reduce CFU by 90% relative to the CFU of drug-free controls at day 10. […]
# [6] = Mycobacteroides abscessus, 120 h
# [7] = female, CD-1, mouse, in vivo, 10 mg/kg
# [8] = female, CD-1, mouse, in vivo, iv, 10 mg/kg
structure (smiles),measurement,setting,value
"CO[C@H]1/C=C/O[C@@]2(C)Oc3c(C)c(O)c4c(c3C2=O)C2=NC3(CCN(CC(C)C)CC3)NC2=C(NC(=O)/C(C)=C/C=C/[C@H](C)[C@H](O)[C@@H](C)[C@@H](O)[C@@H](C)[C@H](OC(=O)c2cccnc2)[C@@H]1C)C4=O [5m, 25-O-(3-pyridinecarbonyl)-25-O-desacetyrifabutin]",CL,"[1]; mouse, in vivo, 10 mg/kg",3.0 mL/min/kg
same,Vd,"[1]; mouse, in vivo, 10 mg/kg",1.6 L/kg
same,"fAUC/MIC, times higher than rifabutin","[1]; mouse, in vivo, po, 10 mg/kg",128
same,fold increase in the unbound fraction in plasma,[2]; plasma,at least 100 fold
same,MIC,M. simiae,0.18 µM
same,fold improvement,M. simiae; 5m vs rifabutin,56
same,MIC,M. chelonae,0.01 µM
same,fold improvement,M. chelonae; 5m vs rifabutin,58
same,MIC,M. fortuitum,0.01 µM
same,fold improvement,M. fortuitum; 5m vs rifabutin,60
same,fold improvement,"[3]; 5m vs rifabutin, subspecies abscessus",30
same,MIC,[3],0.05 µM
same,fold improvement,"[4]; 5m vs rifabutin, subspecies massilense",8
same,MIC,[4],0.04 µM
same,fold improvement,"[5]; 5m vs rifabutin, subspecies bolletii",40
same,MIC,[5],0.03 µM
same,cMBC90/bMBC90,M. abscessus Bamboo,12.5
same,MBC,"M. abscessus Bamboo; caseum surrogate, 5 days, 90% CFU reduction vs drug-free control",2 µM
"CC[C@H]1OC(=O)[C@H](C)[C@@H](O[C@H]2C[C@@](C)(OC)[C@@H](O)[C@H](C)O2)[C@H](C)[C@@H](O[C@@H]2O[C@H](C)C[C@H](N(C)C)[C@H]2O)[C@](C)(OC)C[C@@H](C)C(=O)[C@H](C)[C@@H](O)[C@]1(C)O [clarithromycin, reference compound]",cMBC90/bMBC90,M. abscessus Bamboo,64
same,MBC,M. abscessus Bamboo; [6],128 µM
"CO[C@H]1/C=C/O[C@@]2(C)Oc3c(C)c(O)c4c(c3C2=O)C2=NC3(CCN(CC(C)C)CC3)NC2=C(NC(=O)/C(C)=C\C=C\[C@H](C)[C@H](O)[C@@H](C)[C@@H](O)[C@@H](C)[C@H](OC(C)=O)[C@@H]1C)C4=O [rifabutin, reference compound]",ƒAUC/MIC,[1]; Table 18,0.22
same,ƒAUC/MIC,[1]; Table 20,0.22
same,25-O-desacetyl rifabutin 6 detected in mouse plasma,"[1]; female, CD-1, mouse, in vivo",0.4%
same,F,"[1]; female, CD-1, mouse, in vivo",70%
same,Vd,"[1]; female, CD-1, mouse, in vivo",3.5 L/kg
same,clearance,"[1]; female, CD-1, mouse, in vivo",10.3 mL/min/kg
same,Vd,[1]; [7],3.51 L/kg
same,clearance,[1]; [7],10.3 mL/min/kg
same,C-25 deacylation i.v.,"[1]; female, CD-1, mouse, in vivo, iv",0.4%
same,Vd,[1]; [8],3.51 L/kg
same,clearance,[1]; [8],10.3 mL/min/kg
same,C-25 deacylation p.o.,"[1]; female, CD-1, mouse, in vivo, po",0.4%
same,AUC,"[1]; female, CD-1, mouse, in vivo, po, 10 mg/kg",11500 ng·h/mL
same,half-life,"[1]; female, mouse, in vivo, CD-1 mice, 10 mg/kg",4 h
same,fAUC/MIC,[1]; p.o. doses of 10 mg/kg,0.22
same,ƒu,"[2]; 4 h, 10000 ng/mL",4.5%
same,"fraction unbound at 4 h, 10000 ng/mL",[2]; plasma,0.0376
same,"plasma unbound (ƒu, %)","[2]; plasma, 4 h, 10000 ng/mL",3.8%
same,unbound fraction,"[2]; plasma, 4 h, 10000 ng/mL",3.76%
same,MIC,M. simiae; Mycobacterium simiae,10 µM
same,MIC,M. chelonae; Mycobacteroides chelonae,0.58 µM
same,MIC,M. fortuitum; Mycolicibacterium fortuitum,0.6 µM
same,MIC,[3]; Mycobacteroides abscessus,1.5 µM
same,MIC,[4]; Mycobacteroides abscessus,0.3 µM
same,MIC,[5]; Mycobacteroides abscessus,1.2 µM
same,cMBC90/bMBC90,M. abscessus Bamboo,16
same,MBC,M. abscessus Bamboo; [6],72 µM
